Measured values as given in the supplement of paper PMC11061612.

Legend:
Test in all cases: Bliss excess, mean over the matrix (fraction); higher = more synergy
[1] = test system: RCC-JW (Kidney Carcinoma)
In short: (§1)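 After 24 hours at 37°C and 5% CO2 in 1536-well plates, cells in DMEM/F12 or RPMI plus 10% FBS received two-drug dose matrices for 72 hours. Viability came from CellTiter-Glo 2.0 luminescence and was scaled as inhibition, anchored at 0 by vehicle wells and at 1 by blank wells. Combination Emax is taken as the second-highest inhibition in the matrix, and Bliss excess as the observed combination effect less EA + EB − EA·EB, with EA and EB the single-agent effects.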

[2] = test system: NAMALWA (Burkitt's Lymphoma)
In short: as §1

[3] = test system: SiHa (Cervical Carcinoma)
In short: as §1

ES6 (Ewing's Sarcoma) = test system: ES6 (Ewing's Sarcoma)
In short: as §1

[4] = test system: C-33-A (Cervical Carcinoma)
In short: as §1

[5] = test system: NCI-H1963 (Small Cell Lung Carcinoma)
In short: as §1

[6] = test system: MOLP-8 (Plasma Cell Myeloma)
In short: as §1

[7] = test system: CPC-N (Small Cell Lung Carcinoma)
In short: as §1

[8] = test system: SCC-4 (Oral Cavity Carcinoma)
In short: as §1

[9] = test system: SKG-IIIa (Cervical Carcinoma)
In short: as §1

[10] = test system: LCLC-103H (Non-Small Cell Lung Carcinoma)
In short: as §1

KALS-1 (Glioblastoma) = test system: KALS-1 (Glioblastoma)
In short: as §1

SK-N-SH (Neuroblastoma) = test system: SK-N-SH (Neuroblastoma)
In short: as §1

[11] = test system: SAT (Head and Neck Carcinoma)
In short: as §1

[12] = test system: DBTRG-05MG (Glioblastoma)
In short: as §1

[13] = test system: SUP-M2 (T-Cell Non-Hodgkin's Lymphoma)
In short: as §1

[14] = test system: PL4 (Pancreatic Carcinoma)
In short: as §1

[15] = test system: SNU-C2B (Colorectal Carcinoma)
In short: as §1

[16] = test system: OAW-28 (Ovarian Carcinoma)
In short: as §1

[17] = test system: LS-1034 (Colorectal Carcinoma)
In short: as §1

Row | SMILES | Bliss excess [1] | Bliss excess [2] | Bliss excess [3] | Bliss excess (ES6 (Ewing's Sarcoma)) | Bliss excess [4] | Bliss excess [5] | Bliss excess [6] | Bliss excess [7] | Bliss excess [8] | Bliss excess [9] | Bliss excess [10] | Bliss excess (KALS-1 (Glioblastoma)) | Bliss excess (SK-N-SH (Neuroblastoma)) | Bliss excess [11] | Bliss excess [12] | Bliss excess [13] | Bliss excess [14] | Bliss excess [15] | Bliss excess [16] | Bliss excess [17]
1 | CS(=O)(=O)CCNCc1ccc(-c2ccc3ncnc(Nc4ccc(OCc5cccc(F)c5)c(Cl)c4)c3c2)o1 [Lapatinib] + C[C@@H](Oc1cc(-c2cnn(C3CCNCC3)c2)cnc1N)c1c(Cl)ccc(F)c1Cl [Crizotinib] (first compound max 10 µM, 7x7, partner max 10 µM) | -0.0455 | -0.0528 | -0.0394 | -0.0437 | -0.0373 | -0.0272 | 0.012 | -0.0741 | 0.0003 | -0.0438 | -0.0152 | -0.0378 | -0.0618 | -0.0358 | -0.0334 | 0.0299 | 0.0434 | -0.0515 | -0.0177 | -0.0407
2 | CC1(C)CCC(CN2CCN(c3ccc(C(=O)NS(=O)(=O)c4ccc(NCC5CCOCC5)c([N+](=O)[O-])c4)c(Oc4cnc5[nH]ccc5c4)c3)CC2)=C(c2ccc(Cl)cc2)C1 [Venetoclax] + C[C@@H]1COCCN1C2=NC(=NC(=C2)C3(CC3)[S@](=N)(=O)C)C4=C5C=CNC5=NC=C4 [AZD6738] (first compound max 1 µM, 7x7, partner max 10 µM) | -0.0484 | -0.0029 | -0.0036 | -0.0314 | -0.0127 | 0.0004 | -0.0193 | -0.0526 | -0.134 | -0.021 | -0.0085 | -0.034 | -0.0671 | -0.0144 | 0.0023 | 0.0239 | -0.0918 | -0.0102 | -0.0216 | -0.0255
3 | CC1(C)CCC(CN2CCN(c3ccc(C(=O)NS(=O)(=O)c4ccc(NCC5CCOCC5)c([N+](=O)[O-])c4)c(Oc4cnc5[nH]ccc5c4)c3)CC2)=C(c2ccc(Cl)cc2)C1 [Venetoclax] + Cc1cc2ncnn2cc1Nc1ncc2c(n1)n(C1CCOCC1)c(=O)n2C [AZD7648] (first compound max 1 µM, 7x7, partner max 10 µM) | -0.0431 | -0.0246 | -0.0549 | -0.0359 | -0.0032 | 0.109 | 0.0222 | -0.0219 | -0.0674 | 0.0161 | -0.0416 | -0.0904 | -0.0125 | -0.0171 | -0.0224 | 0.0218 | -0.0297 | 0.0034 | 0.0005 | -0.0323
4 | Cc1cc2ncnn2cc1Nc1ncc2c(n1)n(C1CCOCC1)c(=O)n2C [AZD7648] + CN(C)CCCOc1ccc(-c2ccc3ncc4c(c3c2)n(C2CCOCC2)c(=O)n4C)cn1 [AZD0156] (first compound max 10 µM, 7x7, partner max 1 µM) | -0.0158 | -0.0224 | -0.0074 | -0.0234 | 0.033 | 0.0494 | 0.0712 | 0.0326 | -0.0164 | -0.0195 | -0.0422 | 0.015 | -0.0046 | 0.0062 | -0.0363 | 0.0397 | -0.0153 | -0.0251 | -0.0115 | -0.0187
5 | COc1cccc2c1C(=O)c1c(O)c3c(c(O)c1C2=O)C[C@@](O)(C(=O)CO)C[C@@H]3O[C@H]1C[C@H](N)[C@H](O)[C@H](C)O1 [Doxorubicin] + Cc1cc2ncnn2cc1Nc1ncc2c(n1)n(C1CCOCC1)c(=O)n2C [AZD7648] (first compound max 1 µM, 7x7, partner max 10 µM) | 0.0352 | 0.0765 | 0.0142 | 0.0672 | 0.0531 | 0.1 | 0.0396 | 0.105 | 0.0176 | 0.0086 | 0.0261 | 0.0571 | 0.0605 | 0.0764 | 0.0225 | 0.112 | 0.0391 | 0.0518 | 0.0209 | 0.0055
6 | Cc1cc2ncnn2cc1Nc1ncc2c(n1)n(C1CCOCC1)c(=O)n2C [AZD7648] + O=C(c1cc(Cc2n[nH]c(=O)c3ccccc23)ccc1F)N1CCN(C(=O)C2CC2)CC1 [Olaparib] (first compound max 10 µM, 7x7, partner max 10 µM) | -0.0795 | -0.0119 | -0.0389 | -0.0341 | -0.0107 | -0.0052 | -0.0267 | 0.0169 | -0.0422 | -0.0678 | -0.0374 | -0.0225 | 0.0056 | -0.039 | -0.0477 | 0.0721 | -0.0364 | -0.0432 | -0.0127 | -0.0353
7 | C=CCn1c(=O)c2cnc(Nc3ccc(N4CCN(C)CC4)cc3)nc2n1-c1cccc(C(C)(C)O)n1 [AZD1775] + C[C@@H]1COCCN1C2=NC(=NC(=C2)C3(CC3)[S@](=N)(=O)C)C4=C5C=CNC5=NC=C4 [AZD6738] (first compound max 1 µM, partner max 10 µM) | 0.0571 | 0.0397 | 0.0019 | 0.0509 | 0.0554 | 0.036 | -0.0064 | 0.0072 | -0.0248 | -0.0378 | 0.0108 | 0.0058 | -0.0285 | -0.0229 | -0.0076 | -0.0015 | 0.0501 | -0.0212 | 0.0012 | 0.0097
